From publication PMC4522185 (ChemistryOpen, 2015)
Values after ≈ are worked out from the molar mass of the structure shown. Where two headings read alike, the source gives them in different places.

How the values were obtained:
[1] = molecular target: human 20S proteasome (chymotrypsin-like activity, with PA28 activator) (Homo sapiens, UniProt P28074); assay: fluorogenic suc-LLVY-AMC cleavage; type: biochemical
[2] = physchem; conditions: pbs, pH 7.4, aqueous buffer
[3] = physchem; conditions: ch3cn+pbs (1+1), pH 7.4
[4] = molecular target: T1, Mtb 20S open-gate proteasome (Mycobacterium tuberculosis, UniProt P9WHT9); assay: biochemical
[5] = physchem; conditions: pbs, pH 7.4, aqueous buffer; remark: listed apart in the source
[6] = physchem; conditions: ch3cn+pbs (1+1), pH 7.4; remark: listed apart in the source
[7] = molecular target: T1, Mtb 20S open-gate proteasome; assay: biochemical; remark: listed apart in the source
[8] = physchem; conditions: ch3cn+pbs (1+1), pH 7.4; remark: listed apart in the source

T1 sequence (P9WHT9 whole entry): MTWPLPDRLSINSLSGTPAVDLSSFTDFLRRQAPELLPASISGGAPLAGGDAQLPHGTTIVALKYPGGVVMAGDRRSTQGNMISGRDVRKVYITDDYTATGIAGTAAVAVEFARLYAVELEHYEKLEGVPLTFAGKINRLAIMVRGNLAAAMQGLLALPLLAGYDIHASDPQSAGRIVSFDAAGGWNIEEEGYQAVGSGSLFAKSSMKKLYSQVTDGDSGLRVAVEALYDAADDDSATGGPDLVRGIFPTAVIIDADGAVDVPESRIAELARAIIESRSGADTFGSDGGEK
T1 sequence (P9WHU1 whole entry partner): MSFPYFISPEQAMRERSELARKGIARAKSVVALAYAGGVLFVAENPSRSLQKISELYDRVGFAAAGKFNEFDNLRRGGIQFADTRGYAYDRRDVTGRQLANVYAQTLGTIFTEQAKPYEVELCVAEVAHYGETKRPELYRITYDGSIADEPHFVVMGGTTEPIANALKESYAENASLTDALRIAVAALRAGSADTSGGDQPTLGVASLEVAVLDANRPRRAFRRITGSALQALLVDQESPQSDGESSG
human 20S proteasome (chymotrypsin-like activity, with PA28 activator), sequence (P28074 60-263): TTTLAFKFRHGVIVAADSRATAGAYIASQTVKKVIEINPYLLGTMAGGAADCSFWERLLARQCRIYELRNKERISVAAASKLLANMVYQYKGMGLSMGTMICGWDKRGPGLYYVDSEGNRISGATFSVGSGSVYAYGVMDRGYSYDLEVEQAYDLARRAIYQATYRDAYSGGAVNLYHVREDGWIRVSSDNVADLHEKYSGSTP
human 20S proteasome (chymotrypsin-like activity, with PA28 activator), sequence (P25786 whole entry partner): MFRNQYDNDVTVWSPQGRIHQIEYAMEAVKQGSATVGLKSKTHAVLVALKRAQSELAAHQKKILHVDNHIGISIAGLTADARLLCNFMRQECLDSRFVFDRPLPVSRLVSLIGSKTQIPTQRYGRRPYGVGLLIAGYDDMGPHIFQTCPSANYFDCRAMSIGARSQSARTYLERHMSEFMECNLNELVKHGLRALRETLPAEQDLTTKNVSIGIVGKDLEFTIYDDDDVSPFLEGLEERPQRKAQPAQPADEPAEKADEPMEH

| Structure (SMILES) | IC50 [1] | remaining at 24 h, 50 µM [3] | IC50 [4] | other results |
| --- | --- | --- | --- | --- |
| O=c1oc(C2CC2)ns1 [compound 6, 5-Cyclopropyl-1,3,4-oxathiazol-2-one] | > 100 µM |  |  |  |
| O=c1oc(CF)ns1 [compound 8, 5-(Fluoromethyl)-1,3,4-oxathiazol-2-one] | 1.4 µM |  |  |  |
| O=c1oc(/C=C/c2c[nH]c3ccccc23)ns1 [compound 57, 57] | 5 µM |  |  | solubility at 18 h [2]: 4.1 µM (≈ 1 µg/mL) |
| O=c1oc(/C=C/c2cccc(OC(F)(F)F)c2)ns1 [compound 43, (E)-5-(3-(Trifluoromethoxy)styryl)-1,3,4-oxathiazol-2-one] | 39.5 µM | 96.2% | 1.8 µM |  |
| N#Cc1ccc(/C=C/c2nsc(=O)o2)cc1 [compound 37, (E)-4-(2-(2-Oxo-1,3,4-oxathiazol-5-yl)vinyl)benzonitrile] | 41.5 µM | 95.4% | 0.495 µM |  |
| COc1cccc(-c2nsc(=O)o2)c1 [compound 3, 5-(3-Methoxyphenyl)-1,3,4-oxathiazol-2-one] | 15 µM |  |  |  |
| O=c1oc(-c2cccc(F)c2)ns1 [compound 4, 5-(3-Fluorophenyl)-1,3,4-oxathiazol-2-one] | 11 µM |  |  |  |
| O=Cc1ccc(/C=C/c2nsc(=O)o2)cc1 [compound 38, (E)-4-(2-(2-Oxo-1,3,4-oxathiazol-5-yl)vinyl)benzaldehyde] | 32.5 µM | 91.4% | 0.695 µM |  |
| O=c1oc(/C(=C/c2ccccc2)c2ccccc2)ns1 [compound 23, (E)-5-(1,2-Diphenylvinyl)-1,3,4-oxathiazol-2-one] | 14 µM |  |  |  |
| O=Cc1ccc(OCc2nsc(=O)o2)cc1 [compound 11, 4-((2-Oxo-1,3,4-oxathiazol-5-yl)methoxy)benzaldehyde] | > 100 µM |  |  |  |
| COC(=O)c1ccc(/C=C/c2nsc(=O)o2)cc1 [compound 35, (E)-Methyl 4-(2-(2-oxo-1,3,4-oxathiazol-5-yl)vinyl)benzoate] | 27.5 µM | 97.3% | 0.415 µM |  |
| O=c1oc(Cc2ccccc2C(F)(F)F)ns1 [compound 13, 5-(2-(Trifluoromethyl)benzyl)-1,3,4-oxathiazol-2-one] | 8.7 µM |  |  |  |
| COc1cccc(Cc2nsc(=O)o2)c1 [compound 10, 5-(3-Methoxybenzyl)-1,3,4-oxathiazol-2-one] | > 100 µM |  |  |  |
| O=c1onc(-c2ccccc2)o1 [compound 24, 3-Phenyl-1,4,2-dioxazol-5-one] | > 100 µM |  |  | solubility at 18 h [5]: 7.6 µM (≈ 1.24 µg/mL); remaining at 24 h, 50 µM [6]: 8.5% |
| O=c1oc(CCc2ccccc2)ns1 [compound 15, 5-Phenethyl-1,3,4-oxathiazol-2-one] | 6.7 µM |  |  |  |
| O=c1oc(C#Cc2ccccc2)ns1 [compound 20, 5-(Phenylethynyl)-1,3,4-oxathiazol-2-one] | 4.2 µM |  |  | solubility at 18 h [5]: 24.9 µM (≈ 5.06 µg/mL); IC50 [7]: 1.03 µM; remaining at 24 h, 50 µM [6]: 89.6% |
| O=c1oc(Cc2ccccc2)ns1 [compound 9, 5-Benzyl-1,3,4-oxathiazol-2-one] | 1.9 µM |  |  |  |
| O=c1oc(/C=C/c2cc(Cl)ccc2Cl)ns1 [compound 40, (E)-5-(2,5-Dichlorostyryl)-1,3,4-oxathiazol-2-one] | 50 µM | 98.5% | 0.785 µM |  |
| Cc1ccc(/C=C/c2nsc(=O)o2)cc1 [compound 30, (E)-5-(4-Methylstyryl)-1,3,4-oxathiazol-2-one] | > 100 µM | 96% | 1 µM |  |
| O=c1oc(-c2cnccn2)ns1 [compound 2] |  |  |  | solubility at 18 h [5]: 35.1 µM (≈ 6.36 µg/mL); IC50 [7]: 2.3 µM; remaining at 24 h, 50 µM [6]: 3.6% |
| COc1ncccc1/C=C/c1nsc(=O)o1 [compound 50, (E)-5-(2-(2-Methoxypyridin-3-yl)vinyl)-1,3,4-oxathiazol-2-one] | 29.5 µM |  |  | remaining at 24 h, 50 µM [8]: 97.7%; solubility at 18 h [2]: 2.1 µM (≈ 0.496 µg/mL) |
| O=c1oc(/C=C/c2ccc(C(F)(F)F)cc2)ns1 [compound 18, (E)-5-(4-(Trifluoromethyl)styryl)-1,3,4-oxathiazol-2-one] | > 100 µM |  |  | solubility at 18 h [5]: 0.1 µM (≈ 0.0273 µg/mL) |
| O=c1oc(CCCl)ns1 [compound 5, 5-(2-Chloroethyl)-1,3,4-oxathiazol-2-one] | > 100 µM |  |  |  |
| CCCCCc1nsc(=O)o1 [compound 7, 5-Pentyl-1,3,4-oxathiazol-2-one] | > 100 µM |  |  |  |
| O=c1nc2c(/C=C/c3nsc(=O)o3)cccn2s1 [compound 56, (E)-5-(2-(2-Oxo-2 H-[1,2,4]thiadiazolo[2,3-a]pyridin-8-yl)vinyl)-1,3,4-oxathiazol-2-one] |  |  |  | solubility at 18 h [2]: 2.4 µM (≈ 0.67 µg/mL) |
| CCc1ccc(/C=C/c2nsc(=O)o2)cc1 [compound 31, (E)-5-(4-Ethylstyryl)-1,3,4-oxathiazol-2-one] | > 100 µM | 98.2% | 1.08 µM |  |

| Structure (SMILES) | IC50 [1] | remaining at 24 h, 50 µM [3] | IC50 [4] | other results |
| --- | --- | --- | --- | --- |
| CCOC(=O)c1ccc(/C=C/c2nsc(=O)o2)cc1 [compound 33, (E)-Ethyl 4-(2-(2-oxo-1,3,4-oxathiazol-5-yl)vinyl)benzoate] | > 100 µM | 91.1% | 0.475 µM |  |
| CC(C)c1ccc(/C=C/c2nsc(=O)o2)cc1 [compound 29, (E)-5-(4-Isopropylstyryl)-1,3,4-oxathiazol-2-one] | 14.5 µM | 99.8% | 1.7 µM |  |
| O=C(c1ccccc1)c1nsc(=O)o1 [compound 19, 5-Benzoyl-1,3,4-oxathiazol-2-one] | 2.95 µM |  |  | solubility at 18 h [5]: 5.7 µM (≈ 1.18 µg/mL); IC50 [7]: 2.25 µM; remaining at 24 h, 50 µM [6]: 46.8% |
| O=c1oc(/C=C/c2ccccc2OC(F)(F)F)ns1 [compound 47, (E)-5-(2-(Trifluoromethoxy)styryl)-1,3,4-oxathiazol-2-one] | > 100 µM | 95.7% |  |  |
| O=C(c1ccccc1)c1ccc(/C=C/c2nsc(=O)o2)cc1 [compound 34, (E)-5-(4-Benzoylstyryl)-1,3,4-oxathiazol-2-one] | 87 µM | 96.1% | 1.19 µM |  |
| O=c1oc(/C=C/c2ccc(OC(F)(F)F)cc2)ns1 [compound 32, (E)-5-(4-(Trifluoromethoxy)styryl)-1,3,4-oxathiazol-2-one] | > 100 µM | 94.8% | 0.78 µM |  |
| O=c1oc(/C=C/c2ccc([N+](=O)[O-])cc2)ns1 [compound 36, (E)-5-(4-Nitrostyryl)-1,3,4-oxathiazol-2-one] | 26 µM | 96.9% | 1.4 µM |  |
| O=c1oc(-c2cnccn2)ns1 [compound 2, 5-(Pyrazin-2-yl)-1,3,4-oxathiazol-2-one] | 4.5 µM |  |  |  |
| COc1cccc(-c2nsc(=O)o2)c1 [compound 3] |  |  |  | solubility at 18 h [5]: 30.9 µM (≈ 6.47 µg/mL); IC50 [7]: 0.665 µM; remaining at 24 h, 50 µM [6]: 15.4% |
| Cc1ccccc1/C=C/c1nsc(=O)o1 [compound 45, (E)-5-(2-Methylstyryl)-1,3,4-oxathiazol-2-one] | > 100 µM | 94% |  |  |
| O=c1oc(/C=C/c2ccccn2)ns1 [compound 54, (E)-5-(2-(Pyridin-2-yl)vinyl)-1,3,4-oxathiazol-2-one] |  |  |  | solubility at 18 h [2]: 64.6 µM (≈ 13.3 µg/mL) |
| CCc1ccccc1/C=C/c1nsc(=O)o1 [compound 46, (E)-5-(2-Ethylstyryl)-1,3,4-oxathiazol-2-one] | > 100 µM | 98% |  |  |
| O=c1oc(/C=C/C(F)(F)F)ns1 [compound 22, (E)-5-(3,3,3-Trifluoroprop-1-en-1-yl)-1,3,4-oxathiazol-2-one] | > 100 µM |  |  | solubility at 18 h [5]: 44.1 µM (≈ 8.69 µg/mL); remaining at 24 h, 50 µM [6]: 79.9% |
| O=c1oc(/C=C/c2cccnc2)ns1 [compound 55, (E)-5-(2-(Pyridin-3-yl)vinyl)-1,3,4-oxathiazol-2-one] |  |  |  | solubility at 18 h [2]: 70.6 µM (≈ 14.6 µg/mL) |
| O=c1oc(C(O)c2ccccc2)ns1 (stereo not drawn) [compound 14, 5-(Hydroxy(phenyl)methyl)-1,3,4-oxathiazol-2-one] | 20 µM |  |  |  |
| CCc1cccc(/C=C/c2nsc(=O)o2)c1 [compound 42, (E)-5-(3-Ethylstyryl)-1,3,4-oxathiazol-2-one] | 32.5 µM | 96.4% | 1.45 µM |  |
| C=Cc1nsc(=O)o1 [compound 21, 5-Vinyl-1,3,4-oxathiazol-2-one] | 9.1 µM |  |  |  |
| Cc1cccc(/C=C/c2nsc(=O)o2)c1 [compound 41, (E)-5-(3-Methylstyryl)-1,3,4-oxathiazol-2-one] | 39 µM | 98.1% | 1.6 µM |  |
| O=c1onc(/C=C/c2ccccc2)o1 [compound 25] |  |  |  | solubility at 18 h [5]: 12.3 µM (≈ 2.33 µg/mL) |
| CO[C@H](c1ccccc1)c1nsc(=O)o1 [compound 16, (R)-5-(Methoxy(phenyl)methyl)-1,3,4-oxathiazol-2-one] | 5.8 µM |  |  |  |
| O=c1oc(Cc2cccc3ccccc23)ns1 [compound 12, 5-(Naphthalen-1-ylmethyl)-1,3,4-oxathiazol-2-one] | > 100 µM |  |  |  |
| CCOC(=O)c1cccc(/C=C/c2nsc(=O)o2)c1 [compound 44, (E)-Ethyl 3-(2-(2-Oxo-1,3,4-oxathiazol-5-yl)vinyl)benzoate] | > 100 µM | 96% | 9.9 µM |  |
| O=c1oc(-c2ccccc2)ns1 [compound 1, 5-Phenyl-1,3,4-oxathiazol-2-one] | 6.2 µM |  |  |  |
| O=c1oc(/C=C/c2ccc(Cl)cc2)ns1 [compound 39, (E)-5-(4-Chlorostyryl)-1,3,4-oxathiazol-2-one] | > 100 µM | 98.2% | 0.565 µM |  |
| CCOC(=O)c1ccccc1/C=C/c1nsc(=O)o1 [compound 48, (E)-Ethyl 2-(2-(2-Oxo-1,3,4-oxathiazol-5-yl)vinyl)benzoate] | > 100 µM | 97.7% |  |  |
